According to patent US20230390319A1, “INTERFERON GENE STIMULATOR COMPOSITION COMPRISING INDOLIZINE DERIVATIVE AS ACTIVE INGREDIENT” (AJOU UNIVERSITY INDUSTRY-ACADEMIC COOPERATION FOUNDATION, priority 2020, published 2023):
“Also recorded” adds a separate entry of the source.

What was measured:
[1] = test system: IRF3, STAT1; test: Western blot analysis of TBK, IRF3 and STAT1 activity; format: cell-based; conditions: induced by cGAMP, FIG. 5
Experimental: Cells were cultured and lysed in RIPA buffer containing a protease and phosphatase inhibitor cocktail (Thermo Fisher Scientific) and benzonase nuclease (Sigma). After centrifugation, the supernatant was collected, and the amount of protein was measured using a BCA protein assay kit (Thermo Fisher Scientific). Cell lysates were analyzed by SDS-PAGE using an acrylamide gel. After SDS-PAGE, proteins were transferred to a PVDF membrane, blocked with 5% BSA, and then washed with TBST. The membrane was incubated with primary antibodies (anti-STING, anti-pSTING, anti-TBK, anti-pTBK, anti-IRF3, anti-pIRF3, anti-STAT1, anti-pSTAT1, and anti-actin) overnight at 4° C. After washing with TBST, the membrane was treated with HRP-conjugated secondary antibodies at room temperature for 1 hour. The membrane was washed with TBST and treated with ECL solution (Thermo Fisher Scientific). Chemical fluorescence images were taken with ChemiDOC (Bio-Rad).

[2] = test system: ISRE reporter signal; test: ISRE luciferase reporter assay, THP-1 cells co-treated with compound and cGAMP; format: cell-based, Human
Experimental: (§1) Human monocytic THP-1 wild-type (WT) and STING knockout (KO) cell lines were obtained from InvivoGen. Cells were cultured in 1×RPMI 1640 medium containing 10% fetal bovine serum (FBS, Hyclone), 2.05 mM L-glutamine (Hyclone) and 1% penicillin (Corning) in a humidified incubator at 37° C. under 5% CO2.
(§2) To confirm immune responses, THP-1 cells were placed in 384-well plates (Grenier), and treated with each compound and cGAMP (1 μg/ml), and after 24 hours, ISRE activity was analyzed. QUANTI-Luc assay (InvivoGen) was performed using the cell culture supernatant to confirm the luciferase reporter gene signal. Fluorescent signals were measured using a TECAN micro plate reader SPARK, and the results were normalized to DMSO control.
(§3) THP-1 cells were co-treated with each of 86 indolizine derivatives and a very small amount of cGAMP (1 μg/ml), the immune response of the THP-1 cells was examined by ISRE reporter assay, and the cytotoxicity of co-treatment was also evaluated (Table 1). All results were compared by normalization to the reporter assay results obtained by treatment with cGAMP alone. […] Thus, Compound 42 was used in subsequent experiments.

[3] = test system: 4T1 tumor cells; test: In vivo anticancer activity, 4T1 tumor in BALB/c mice; conditions: Compound 42 20 mg/kg intravenous once daily + cGAMP 2 μg intratumoral every 4 days, compared to cGAMP alone, FIG. 7
Experimental: Eight-week-old female BALB/c mice (DBL) were used for experiments and inoculated subcutaneously with 0.5×10^6 4T1 tumor cells using PBS as the vehicle on the right flank. Following tumor implantation, mice were randomized into treatment groups, each consisting of N=4 (vehicle N=1). On day 5 after tumor cell injection, when the tumor volume reached about 100 mm^3, Compound 42 or vehicle was administrated by intravenous injection (20 mg/kg) or vehicle (5% DMSO, 5% Tween 80 in PBS). 2′3′-cGAMP (InvivoGen) was injected by intratumoral injection (2 μg in PBS). Compound 42 was injected once daily, and cGAMP was injected once every 4 days. Tumor and body weight measurements were performed using digital calipers and a weigh scale, respectively. Tumor volume was estimated using the following Equation 1:
Tumor volume=(length×width^2)/2 [Equation 1]
Mice were euthanized when the tumor volume reached about 2,000 mm^3.

[4] = test system: STING KO cell line; test: ISRE reporter assay in THP-1 STING KO cell line; format: cell-based, Human; conditions: co-treatment with cGAMP, FIG. 1
Experimental: as §1, §2

[5] = test system: STING; test: Activity comparison with STING pathway-activating therapeutic agent MV658; format: cell-based; conditions: compared with ENPP inhibitor MV658, FIG. 6
[6] = test system: IFNB, CXCL10, IFIT3, ISG15, IRF7 and OAS1; test: Gene expression analysis by real-time quantitative PCR in THP-1 cells; format: cell-based, Human; conditions: with cGAMP (1 μg/ml), 6 hours, FIG. 4
Experimental: To confirm gene expression, THP-1 cells were placed in a 24-well plate (SPL) and treated with the compound of the present invention and cGAMP (1 μg/ml) for 6 hours. After culturing, RNA was extracted from the cells using NucleoSpin RNA Plus (MN). mRNA expression levels of IFNB, CXCL10, IFIT3, ISG15, IRF7 and OAS1 were measured by real-time qPCR (CFX96 Real-Time PCR Detection System, Bio-Rad) using IQ SYBR Green Supermix (Bio-Rad). GAPDH was used as a housekeeping gene to normalize cytokine mRNA levels.

[7] = test system: human IFN-β and IP-10; test: ELISA of cytokine levels in THP-1 cell supernatants; format: cell-based; conditions: FIG. 3
Experimental: Cytokine levels were determined by ELISA analysis. THP-1 cells were placed in a 96-well U bottom plate and tested after 24 hours of treatment with each compound and cGAMP (1 μg/ml). After culturing, cell supernatants were collected and human IFN-β and IP-10 levels were determined by ELISA analysis.

[8] = test system: THP-1 cells; test: Cell viability assay (CellTiter Clo) in THP-1 cells; format: cell-based, Human
Experimental: as §1
Cells were analyzed using CellTiter Clo (CTG, Promega). […] was measured using a TECAN micro plate reader SPARK. Results were normalized to DMSO control.
as §3

## CC(=O)c1ccc(-c2cc(C(=O)c3ccc(C(F)(F)F)cc3)n3ccccc23)cc1 [Compound 42]
[1]
  phosphorylation of IRF3 and STAT1: increased phosphorylation of IRF3 and phosphorylation of STAT1
[2]; THP-1 WT, co-treatment with cGAMP, FIG. 1
  ISRE reporter effect in WT cell line: increased effect
[2]; THP-1 cells, 20 μM of each compound, co-treated with cGAMP (1 μg/ml), 24 hours
  Normalized RU (relative unit of ISRE reporter signal): 9.32
[2]; co-administered with cGAMP, among 86 indolizine derivatives
  efficacy in ISRE reporter assay: highest efficacy
[3]
  tumor volume: effectively reduced the tumor volume
[4]
  ISRE reporter effect in STING KO cell line: no effect
[5]
  degree of STING-dependent immune response activation: better activity
[6]
  cGAMP-induced expression of interferon-stimulated genes (IFN-beta, IP-10, ISG15, IRF7, IFIT3, OAS1): significantly increased
[7]; co-treatment with cGAMP compared to cGAMP alone, concentration-dependent
  cytokine secretion (IFN-β, IP-10): increased cytokine secretion very effectively
[7]; treatment with Compound 42 alone
  immune response, compound alone: induced no immune response
[8]; THP-1 cells, 20 μM of each compound, co-treated with cGAMP (1 μg/ml)
  Normalized cell viability: 1.20
[8]; co-treatment with cGAMP
  cytotoxicity of co-treatment: no cytotoxicity; also recorded: did not cause toxicity
